Test results published in US20220202052A1, “AROMATIC ALKAMIDES AND METHODS OF USE THEREOF IN TASTE MODULATION” (INTERNATIONAL FLAVORS & FRAGRANCES INC., priority 2019, published 2022).

Legend:
Format in all cases: in vivo, human
[1] = Sensory analysis of aromatic alkamide fractions by trained taste panel; conditions: 0.5 ppm in 4% pea protein isolate solution
Experimental: Sensory analysis of the aromatic alkamides was carried out. Specifically, each isolated fraction, corresponding to each of the aromatic alkamides in Table 7 (samples 14 to 21) (0.5 ppm), was added to a 4% pea protein isolate solution and the ability of the fraction to mask protein off-taste, bitterness, and/or astringency was assessed by a trained taste panel.

[2] = Trained taste panel, individual alkamides and blend vs ethanol extract; conditions: 5% pea protein isolate with 200 μl ethanol, levels per sample in Table 12; for Liking Score: 1 is best, 10 is worst
Experimental: Additional compositions were prepared (Table 12) and assessed by a trained taste panel for taste modulating activity as compared to an ethanol extract of L. meyenii. The protein control sample was a 5% pea protein isolate solution with 200 μl of ethanol added thereto.

[3] = Modulation of umami perception, trained panel; conditions: 0.5 ppm in 0.4% Chicken Bouillon solution
Experimental: The ability of L. meyenii extracts and fractions thereof to modulate umami flavors was determined by adding 25 ppm of an ethanolic extract of L. meyenii root (Example 1), 2 ppm of an ethyl acetate layer of a crude ethanolic extract, or 0.5 ppm of a fraction enriched in N-benzyloctadecanamide to a 0.4% Chicken Bouillon solution (Knorr Chicken Bouillon). Sensory analyses of the above-referenced compositions were carried out by a trained panel, the results of which are presented in Table 10.

| Structure (SMILES) | Sensory taste in 4% protein base [1] | Off Taste: Astringent (intensity) [2] | Off Taste: Beany (intensity) [2] | Off Taste: Bitter (intensity) [2] | Off Taste: Burnt (intensity) [2] | Off Taste: Chalky (intensity) [2] | Off Taste: Earthy (intensity) [2] | Off Taste: Fishy (intensity) [2] | Off Taste: Gritty (intensity) [2] | Off Taste: Metallic/Unpleasant (intensity) [2] | Off Taste: Nutty (intensity) [2] | Off Taste: Sour (intensity) [2] | Liking Score [2] | Chicken Bouillon sensory (umami modulation) [3] |
| --- | --- | --- | --- | --- | --- | --- | --- | --- | --- | --- | --- | --- | --- | --- |
| CC/C=C\C/C=C\C/C=C\CCCCCCCC(=O)NCc1ccccc1 [N-Benzyl linolenamide, N-Benzyllinolenamide] | Moderate masking. | – | – | – | – | – | – | – | – | – | – | – | – | – |
| CCCCCCCC/C=C\CCCCCCCC(=O)NCc1ccccc1 [N-Benzyloleamide] | Little masking. | 4 | 5 | 2 | 0 | 6 | 2 | 0 | 4 | 2 | 2 | 2 | 2 | – |
| CCCCCCCCCCCCCCCCCC(=O)NCc1ccccc1 [N-Benzyloctadecanamide, N-Benzyl octadecanamide] | – | 2 | 3 | 2 | 0 | 2 | 2 | 0 | 2 | 2 | 2 | 2 | 1 | Showed some enhancement |
| CCCCCCCCC/C=C/C=C/C(=O)CCCC(=O)NCc1ccccc1 [Macamide 2] | Good masking. | 2 | 5 | 3 | 0 | 2 | 2 | 0 | 2 | 1 | 2 | 3 | 2 | – |
| CCCCCCCCCCCCCCCC(=O)NCc1ccccc1 [Macamide 1, N-benzylhexadecanamide] | – | 2 | 3 | 2 | 0 | 2 | 2 | 0 | 2 | 1 | 0 | 2 | 1 | – |
| CCCCC/C=C\C/C=C\CCCCCCCC(=O)NCc1ccccc1 [N-Benzyl linoleamide, N-Benzyllinoleamide] | Little masking. | – | – | – | – | – | – | – | – | – | – | – | – | – |
